Calls of active or inactive are those of the source. No cut-off for these calls is given here.
Key:
[1] = molecular target: T1, Tyrosine-protein kinase JAK2 (Homo sapiens, UniProt O60674); assay: Inhibition of JAK2 (unknown origin) using FAM-labelled peptide and ATP at 100 nM measured after 25 mins incubation relative to control
[2] = tested on: HaCaT; assay: cells; details: Homo sapiens, 48 h
Description: Antiproliferative activity against human HaCAT cells assessed as inhibition of TNFalpha-induced proliferation measured after 48 hrs by CCK-8 assay

[3] = tested on: RAW264.7; assay: cells; assay type: functional; details: Mus musculus, time 24 hrs
Description: Antiinflammatory activity in mouse RAW264.7 cells assessed as inhibition of LPS-induced NO release at 0.4 uM incubated for 24 hrs relative to control

[4] = molecular target: Histone deacetylase 1 (Homo sapiens, UniProt Q13547); assay: Inhibition of recombinant human HDAC1 using (Ac-Leu-Gly-Lys(Ac)-AMC as substrate measured after 30 mins by fluorescence assay
Chain of Histone deacetylase 1 (Q13547 whole entry): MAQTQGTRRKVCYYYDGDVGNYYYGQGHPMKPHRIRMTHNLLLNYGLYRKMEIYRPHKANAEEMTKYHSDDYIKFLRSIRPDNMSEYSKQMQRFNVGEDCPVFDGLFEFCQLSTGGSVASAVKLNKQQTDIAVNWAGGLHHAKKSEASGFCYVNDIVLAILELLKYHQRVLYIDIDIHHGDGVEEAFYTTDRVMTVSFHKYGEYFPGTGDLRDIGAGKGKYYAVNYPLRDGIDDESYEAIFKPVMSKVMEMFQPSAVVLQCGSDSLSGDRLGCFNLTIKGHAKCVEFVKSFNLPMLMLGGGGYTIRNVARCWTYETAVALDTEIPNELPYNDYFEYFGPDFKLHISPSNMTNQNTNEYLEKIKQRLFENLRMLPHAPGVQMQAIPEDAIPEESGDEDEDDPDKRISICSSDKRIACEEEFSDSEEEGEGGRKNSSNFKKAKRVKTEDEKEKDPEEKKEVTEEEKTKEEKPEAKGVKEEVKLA

[5] = tested on: RAW264.7; assay: Antiinflammatory activity in mouse RAW264.7 cells assessed as inhibition of LPS-induced NO release at 0.20 uM incubated for 24 hrs relative to control; assay type: functional
[6] = tested on: RAW264.7; assay: Antiinflammatory activity in mouse RAW264.7 cells assessed as inhibition of LPS-induced NO release at 0.10 uM incubated for 24 hrs relative to control; assay type: functional
[7] = tested on: RAW264.7; assay: Antiinflammatory activity in mouse RAW264.7 cells assessed as inhibition of LPS-induced TNFalpha release at 0.9 uM incubated for 24 hrs by ELISA; assay type: functional, cell-based
[8] = tested on: RAW264.7; assay: Antiinflammatory activity in mouse RAW264.7 cells assessed as inhibition of LPS-induced IL-12 release at 0.9 uM incubated for 24 hrs by ELISA; assay type: functional, cell-based
[9] = tested on: RAW264.7; assay: Antiinflammatory activity in mouse RAW264.7 cells assessed as inhibition of LPS-induced IFN-gamma release at 0.9 uM incubated for 24 hrs by ELISA; assay type: functional, cell-based
[10] = molecular target: T1, Tyrosine-protein kinase JAK2; assay: Inhibition of JAK2 (unknown origin) using FAM-labelled peptide and ATP measured after 25 mins incubation relative to control
[11] = molecular target: T2, Tyrosine-protein kinase JAK3 (Homo sapiens, UniProt P52333); assay: Inhibition of JAK3 (unknown origin) using FAM-labelled peptide and ATP measured after 25 mins incubation relative to control
T2 sequence (P52333 whole entry): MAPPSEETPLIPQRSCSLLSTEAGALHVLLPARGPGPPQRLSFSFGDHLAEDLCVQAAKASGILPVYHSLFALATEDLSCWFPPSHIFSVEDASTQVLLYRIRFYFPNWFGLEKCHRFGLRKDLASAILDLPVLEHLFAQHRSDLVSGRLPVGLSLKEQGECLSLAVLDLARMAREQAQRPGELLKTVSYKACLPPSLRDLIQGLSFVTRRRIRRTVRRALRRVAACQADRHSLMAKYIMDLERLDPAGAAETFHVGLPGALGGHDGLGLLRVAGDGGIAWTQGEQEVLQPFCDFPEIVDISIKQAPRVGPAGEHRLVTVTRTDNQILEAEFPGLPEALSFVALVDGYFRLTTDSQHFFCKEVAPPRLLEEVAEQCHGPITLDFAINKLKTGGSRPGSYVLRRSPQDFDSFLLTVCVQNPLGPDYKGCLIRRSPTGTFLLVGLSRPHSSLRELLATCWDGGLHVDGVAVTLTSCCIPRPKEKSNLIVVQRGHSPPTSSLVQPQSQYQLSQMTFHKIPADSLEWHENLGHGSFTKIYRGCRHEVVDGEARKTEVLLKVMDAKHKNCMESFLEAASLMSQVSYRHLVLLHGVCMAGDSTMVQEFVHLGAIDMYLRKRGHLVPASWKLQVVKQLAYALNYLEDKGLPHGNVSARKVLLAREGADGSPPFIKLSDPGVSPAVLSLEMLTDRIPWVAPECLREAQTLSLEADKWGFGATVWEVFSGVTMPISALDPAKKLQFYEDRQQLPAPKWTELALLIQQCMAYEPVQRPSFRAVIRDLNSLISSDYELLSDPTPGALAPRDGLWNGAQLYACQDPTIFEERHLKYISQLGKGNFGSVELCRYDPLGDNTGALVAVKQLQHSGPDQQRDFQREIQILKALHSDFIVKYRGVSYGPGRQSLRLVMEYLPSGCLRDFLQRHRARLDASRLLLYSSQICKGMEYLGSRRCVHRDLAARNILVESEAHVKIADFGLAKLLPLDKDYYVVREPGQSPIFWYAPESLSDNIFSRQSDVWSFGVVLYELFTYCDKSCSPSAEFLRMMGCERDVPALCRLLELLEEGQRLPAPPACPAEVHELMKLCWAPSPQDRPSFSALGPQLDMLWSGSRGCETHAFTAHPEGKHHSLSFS

[12] = molecular target: Non-receptor tyrosine-protein kinase TYK2 (Homo sapiens, UniProt P29597); assay: Inhibition of TYK2 (unknown origin) using FAM-labelled peptide and ATP measured after 25 mins incubation relative to control
Chain of Non-receptor tyrosine-protein kinase TYK2 (P29597 whole entry): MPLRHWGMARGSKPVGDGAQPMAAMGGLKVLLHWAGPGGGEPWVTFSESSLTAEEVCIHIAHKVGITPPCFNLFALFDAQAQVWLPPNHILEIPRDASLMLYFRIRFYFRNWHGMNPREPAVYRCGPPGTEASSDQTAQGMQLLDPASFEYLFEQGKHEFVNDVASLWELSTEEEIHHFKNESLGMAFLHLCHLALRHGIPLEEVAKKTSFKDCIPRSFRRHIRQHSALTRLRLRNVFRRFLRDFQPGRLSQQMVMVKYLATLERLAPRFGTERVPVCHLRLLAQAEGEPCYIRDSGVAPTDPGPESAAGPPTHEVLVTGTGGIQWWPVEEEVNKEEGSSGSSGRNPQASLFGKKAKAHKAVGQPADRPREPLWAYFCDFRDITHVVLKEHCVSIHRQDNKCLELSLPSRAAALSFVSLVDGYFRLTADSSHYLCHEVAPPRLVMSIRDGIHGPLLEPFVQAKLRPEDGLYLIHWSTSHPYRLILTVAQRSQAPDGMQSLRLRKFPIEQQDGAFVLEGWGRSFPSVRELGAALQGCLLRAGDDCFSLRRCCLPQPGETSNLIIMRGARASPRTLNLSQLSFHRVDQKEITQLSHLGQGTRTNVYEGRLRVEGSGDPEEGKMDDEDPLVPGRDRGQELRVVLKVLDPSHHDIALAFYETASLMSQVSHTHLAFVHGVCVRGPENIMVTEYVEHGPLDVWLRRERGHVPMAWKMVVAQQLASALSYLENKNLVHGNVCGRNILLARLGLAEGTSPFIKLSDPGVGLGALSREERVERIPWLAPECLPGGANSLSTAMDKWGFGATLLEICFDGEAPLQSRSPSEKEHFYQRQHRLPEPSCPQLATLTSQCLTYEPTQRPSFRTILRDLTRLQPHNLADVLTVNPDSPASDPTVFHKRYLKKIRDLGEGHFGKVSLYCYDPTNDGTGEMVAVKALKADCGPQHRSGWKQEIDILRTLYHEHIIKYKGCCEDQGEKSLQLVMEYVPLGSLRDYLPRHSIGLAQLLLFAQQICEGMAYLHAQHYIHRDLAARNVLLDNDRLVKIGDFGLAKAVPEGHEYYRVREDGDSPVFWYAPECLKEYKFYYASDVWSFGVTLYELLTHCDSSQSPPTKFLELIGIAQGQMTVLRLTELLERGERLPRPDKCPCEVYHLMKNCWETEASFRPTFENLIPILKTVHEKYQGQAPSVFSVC

[13] = molecular target: T3, Histone deacetylase 8 (Homo sapiens, UniProt Q9BY41); assay: Inhibition of recombinant human HDAC8 using (Ac-Leu-Gly-Lys(Tfa)-AMC as substrate measured after 30 mins by fluorescence assay
T3 sequence (Q9BY41 whole entry): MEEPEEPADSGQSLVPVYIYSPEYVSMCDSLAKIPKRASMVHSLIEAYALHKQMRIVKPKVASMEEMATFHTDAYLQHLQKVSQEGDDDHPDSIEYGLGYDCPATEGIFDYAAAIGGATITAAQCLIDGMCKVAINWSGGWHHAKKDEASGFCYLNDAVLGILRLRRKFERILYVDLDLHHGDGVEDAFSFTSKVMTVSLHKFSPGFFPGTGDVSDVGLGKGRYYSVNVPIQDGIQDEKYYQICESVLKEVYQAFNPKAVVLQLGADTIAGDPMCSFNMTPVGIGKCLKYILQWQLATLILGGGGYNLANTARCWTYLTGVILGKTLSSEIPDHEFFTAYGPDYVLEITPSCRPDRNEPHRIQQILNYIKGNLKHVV

[14] = Metabolic stability of the compound in female ICR mouse liver microsomes assessed as half life at 1 uM measured up to 45 mins by LC-MS/MS analysis; assay type: ADME
[15] = Metabolic stability of the compound in female ICR mouse liver microsomes assessed as clearance at 1 uM measured up to 45 mins by LC-MS/MS analysis; assay type: ADME; details: read-out: CLH
[16] = tested on: Mus musculus; assay: Antipsoriatic activity against imiquimod-induced psoriasis BALB/c mouse model assessed as improvement in psoriatic symptom at 0.5 % applied topically back of the mouse for 7 consecutive days; assay type: functional, organism-based; details: route top
[17] = tested on: Mus musculus; assay: Antipsoriatic activity against imiquimod-induced psoriasis BALB/c mouse model assessed as reduction in skin thickness at 0.5 % applied topically back of the mouse for 7 consecutive days by hematoxylin and eosin staining based histological analysis; assay type: functional, organism-based; details: route top
[18] = tested on: Mus musculus; assay: Antipsoriatic activity against imiquimod-induced psoriasis BALB/c mouse model assessed as reduction in skin thickness at 0.25 % applied topically back of the mouse for 7 consecutive days by hematoxylin and eosin staining based histological analysis; assay type: functional, organism-based; details: route top
[19] = Antiproliferative activity against human LO2 cells; assay type: toxicity, cell-based, L02
[20] = molecular target: Platelet-derived growth factor receptor alpha (Homo sapiens) (UniProt P16234); assay: Inhibition of PDGFRalpha (unknown origin) at 10 nM relative to control
Chain of Platelet-derived growth factor receptor alpha (Homo sapiens) (P16234 whole entry): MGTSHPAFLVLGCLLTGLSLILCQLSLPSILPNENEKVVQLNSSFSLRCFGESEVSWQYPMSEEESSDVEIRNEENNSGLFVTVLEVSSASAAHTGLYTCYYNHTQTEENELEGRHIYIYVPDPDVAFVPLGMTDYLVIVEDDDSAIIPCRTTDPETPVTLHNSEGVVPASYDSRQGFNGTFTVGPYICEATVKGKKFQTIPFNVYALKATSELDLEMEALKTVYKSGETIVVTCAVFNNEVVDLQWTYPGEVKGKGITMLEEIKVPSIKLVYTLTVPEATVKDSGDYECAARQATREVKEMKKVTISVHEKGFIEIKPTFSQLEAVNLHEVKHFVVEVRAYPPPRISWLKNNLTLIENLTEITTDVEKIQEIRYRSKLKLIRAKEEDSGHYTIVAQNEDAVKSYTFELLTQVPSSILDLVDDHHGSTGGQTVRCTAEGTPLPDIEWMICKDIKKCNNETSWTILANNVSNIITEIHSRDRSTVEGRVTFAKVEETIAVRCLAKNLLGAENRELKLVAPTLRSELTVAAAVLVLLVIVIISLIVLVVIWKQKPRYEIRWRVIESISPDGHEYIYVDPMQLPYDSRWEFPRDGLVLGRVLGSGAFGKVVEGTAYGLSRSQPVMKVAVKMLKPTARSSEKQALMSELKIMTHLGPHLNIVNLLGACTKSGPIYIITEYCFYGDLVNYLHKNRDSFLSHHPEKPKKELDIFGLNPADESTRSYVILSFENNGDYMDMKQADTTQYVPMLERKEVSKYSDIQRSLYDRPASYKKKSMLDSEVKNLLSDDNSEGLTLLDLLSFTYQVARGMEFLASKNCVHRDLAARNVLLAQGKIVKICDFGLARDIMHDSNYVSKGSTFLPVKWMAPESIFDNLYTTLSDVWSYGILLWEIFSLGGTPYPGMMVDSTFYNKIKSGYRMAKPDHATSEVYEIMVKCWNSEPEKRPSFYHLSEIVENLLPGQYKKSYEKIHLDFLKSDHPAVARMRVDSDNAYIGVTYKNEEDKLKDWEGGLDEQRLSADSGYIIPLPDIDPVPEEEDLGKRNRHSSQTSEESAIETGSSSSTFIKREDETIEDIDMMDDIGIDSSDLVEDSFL

[21] = tested on: Mus musculus; assay: Antipsoriatic activity against imiquimod-induced psoriasis BALB/c mouse model assessed as improvement in psoriatic symptom at 0.25 to 0.5 % applied topically back of the mouse for 7 consecutive days; assay type: functional, organism-based; details: dose 0.25-0.5 %, route top
[22] = tested on: Mus musculus; assay: Antipsoriatic activity against imiquimod-induced psoriasis BALB/c mouse model assessed as improvement in psoriatic symptom at 0.25 % applied topically back of the mouse for 7 consecutive days; assay type: functional, organism-based; details: route top
[23] = tested on: Mus musculus; assay: Antipsoriatic activity against imiquimod-induced psoriasis BALB/c mouse model assessed as reduction in epidermal thickness applied topically back of the mouse for 7 consecutive days by hematoxylin and eosin staining based histological analysis; assay type: functional, organism-based; details: dose 0.25-0.5 %, route top
[24] = Antiproliferative activity against HUVEC cells; details: human
[25] = Acute toxicity in BALB/c mouse assessed as animal death at 7508 mg/kg; assay type: organism-based; details: in vivo
[26] = Acute toxicity in BALB/c mouse assessed as animal death; details: in vivo

T1 sequence (O60674 whole entry): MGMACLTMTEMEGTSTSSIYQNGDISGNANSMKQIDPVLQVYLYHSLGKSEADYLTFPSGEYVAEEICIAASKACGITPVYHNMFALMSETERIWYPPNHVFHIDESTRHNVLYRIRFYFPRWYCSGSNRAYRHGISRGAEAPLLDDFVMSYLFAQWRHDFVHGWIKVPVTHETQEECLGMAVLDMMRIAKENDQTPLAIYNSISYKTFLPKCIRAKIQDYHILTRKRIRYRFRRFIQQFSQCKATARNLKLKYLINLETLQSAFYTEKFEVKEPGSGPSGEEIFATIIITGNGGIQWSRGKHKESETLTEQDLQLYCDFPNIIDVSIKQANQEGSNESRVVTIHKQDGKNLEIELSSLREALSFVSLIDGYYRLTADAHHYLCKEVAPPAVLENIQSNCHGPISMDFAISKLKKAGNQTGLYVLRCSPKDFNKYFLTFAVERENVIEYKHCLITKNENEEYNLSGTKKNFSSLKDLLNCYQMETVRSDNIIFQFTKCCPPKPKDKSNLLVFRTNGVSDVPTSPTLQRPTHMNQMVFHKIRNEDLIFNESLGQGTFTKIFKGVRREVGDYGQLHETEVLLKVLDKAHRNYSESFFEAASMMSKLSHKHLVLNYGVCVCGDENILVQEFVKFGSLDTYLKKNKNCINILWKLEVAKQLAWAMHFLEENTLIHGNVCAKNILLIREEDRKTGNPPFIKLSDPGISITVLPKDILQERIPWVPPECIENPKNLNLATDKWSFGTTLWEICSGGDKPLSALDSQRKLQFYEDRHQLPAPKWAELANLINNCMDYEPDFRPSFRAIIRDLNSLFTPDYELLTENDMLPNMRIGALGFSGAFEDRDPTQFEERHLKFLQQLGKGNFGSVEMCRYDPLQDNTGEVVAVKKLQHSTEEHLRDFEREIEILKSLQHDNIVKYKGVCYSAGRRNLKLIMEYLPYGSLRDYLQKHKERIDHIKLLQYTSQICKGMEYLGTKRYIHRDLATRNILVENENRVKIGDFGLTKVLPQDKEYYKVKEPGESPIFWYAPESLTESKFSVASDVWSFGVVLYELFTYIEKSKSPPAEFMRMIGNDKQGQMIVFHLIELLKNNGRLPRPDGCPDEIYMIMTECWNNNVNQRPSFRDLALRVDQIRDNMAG

SMILES | inhibition [1] [%] | IC50 [2] [µM] | inhibition at 0.4 µM [3] [%] | further results
CS(=O)(=O)Nc1ccc(-c2ccnc(Nc3ccc(N4CCN(CC(=O)NCCCCCC(=O)NO)CC4)cc3)n2)cc1 | 99 | 9.6 |  | 
CS(=O)(=O)Nc1ccc(-c2ccnc(Nc3ccc(-c4cn(CC(=O)NCCCCCC(=O)NO)nn4)cc3)n2)cc1 | 98 | > 50 |  | 
CS(=O)(=O)Nc1ccc(-c2ccnc(Nc3ccc(-c4cn(CC(=O)NCCCCC(=O)NO)nn4)cc3)n2)cc1 | 98 | > 50 |  | 
CS(=O)(=O)Nc1ccc(-c2ccnc(Nc3ccc(N4CCN(CC(=O)Nc5ccc(C(=O)NO)s5)CC4)cc3)n2)cc1 | 99 | 1.4 | 82.1 | 
CS(=O)(=O)Nc1ccc(-c2ccnc(Nc3ccc(-c4cn(CC(=O)NCCC(=O)NO)nn4)cc3)n2)cc1 | 97 | > 50 |  | 
CS(=O)(=O)Nc1ccc(-c2ccnc(Nc3ccc(N4CCN(CC(=O)NCCCCC(=O)NO)CC4)cc3)n2)cc1 | 98 | 16 |  | 
C[C@@H]1CCN(C(=O)CC#N)C[C@@H]1N(C)c1ncnc2[nH]ccc12 [TOFACITINIB] |  | > 50 |  | 
CS(=O)(=O)Nc1ccc(-c2ccnc(Nc3ccc(-c4cn(CC(=O)Nc5ccc(C(=O)NO)cc5)nn4)cc3)n2)cc1 | 98 | > 50 |  | IC50 [4]: > 2 µM
CS(=O)(=O)Nc1ccc(-c2ccnc(Nc3ccc(-c4cn(CC(=O)NCCCCCCC(=O)NO)nn4)cc3)n2)cc1 | 99 | > 50 |  | 
CS(=O)(=O)Nc1ccc(-c2ccnc(Nc3ccc(N4CCN(CC(=O)Nc5ccc(/C=C/C(=O)NO)cc5)CC4)cc3)n2)cc1 | 99 |  | 110 | inhibition at 0.2 µM [5]: 105%; inhibition at 0.1 µM [6]: 82.1%; Activity [7]: Active; Activity [8]: Active; Activity [9]: Active; IC50 [10]: 0.00072 µM; IC50 [11]: 0.0079 µM; IC50 [12]: 0.0044 µM; IC50 [13]: > 1 µM; half-life at 1 µM [14]: 56.3 min; CLint scaled at 1 µM [15]: 97.5 mL/min/kg; Activity [16]: Active; Activity [17]: Active; Activity [18]: Active; IC50 [19]: 5 µM
CS(=O)(=O)Nc1ccc(-c2ccnc(Nc3ccc(N4CCN(CC(=O)Nc5ccc(C(=O)NO)cc5)CC4)cc3)n2)cc1 | 99 | 1.2 | 105 | inhibition at 0.2 µM [5]: 105%; inhibition at 0.1 µM [6]: 105%; Activity [7]: Active; Activity [8]: Active; Activity [9]: Active; IC50 [10]: 0.00049 µM; IC50 [11]: 0.0056 µM; IC50 [12]: 0.0026 µM; inhibition [20]: > 50%; half-life at 1 µM [14]: 39.8 min; CLint scaled at 1 µM [15]: 138 mL/min/kg; Activity [21]: Active; Activity [22]: Active; Compound Showed Better Activity Than 11G And Vorinostat/Momelotinib Control; Activity [18]: Active; Activity [23]: Dose-dependent-effect; IC50 [24]: 10 µM; Activity [25]: Non-toxic; LD50 [26]: > 7510 mg/kg
CS(=O)(=O)Nc1ccc(-c2ccnc(Nc3ccc(N4CCN(CC(=O)NCCCCCCCC(=O)NO)CC4)cc3)n2)cc1 | 100 | 10 | 71.3 | 
CS(=O)(=O)Nc1ccc(-c2ccnc(Nc3ccc(-c4cn(CC(=O)NCCCCCCCC(=O)NO)nn4)cc3)n2)cc1 |  | > 50 |  | 
CS(=O)(=O)Nc1ccc(-c2ccnc(Nc3ccc(-c4cn(CC(=O)NCCCC(=O)NO)nn4)cc3)n2)cc1 | 99 | > 50 |  | 
N#CCNC(=O)c1ccc(-c2ccnc(Nc3ccc(N4CCOCC4)cc3)n2)cc1 [MOMELOTINIB] |  | 13 | 94.8 | IC50 [4]: 0.04 µM; IC50 [24]: 7.3 µM
CS(=O)(=O)Nc1ccc(-c2ccnc(Nc3ccc(-c4cn(CC(=O)NO)nn4)cc3)n2)cc1 | 99 | > 50 |  | IC50 [4]: > 2 µM
CS(=O)(=O)Nc1ccc(-c2ccnc(Nc3ccc(N4CCN(CC(=O)NCCCC(=O)NO)CC4)cc3)n2)cc1 | 100 | 17 |  | 
CS(=O)(=O)Nc1ccc(-c2ccnc(Nc3ccc(N4CCN(CC(=O)NO)CC4)cc3)n2)cc1 | 99 | 10 |  | IC50 [4]: > 2 µM
CS(=O)(=O)Nc1ccc(-c2ccnc(Nc3ccc(N4CCN(CC(=O)NCCC(=O)NO)CC4)cc3)n2)cc1 | 99 | > 50 |  | IC50 [4]: > 2 µM
CS(=O)(=O)Nc1ccc(-c2ccnc(Nc3ccc(N4CCN(CC(=O)NCCCCCCC(=O)NO)CC4)cc3)n2)cc1 | 99 | 5.3 | 73.9 | 
